Data reported in patent publication US10222368B2 (priority 2012, dated 2019).

Target: T1, mu opiate receptor (MOR) (Rattus norvegicus, UniProt P33535)
T1 construct: from tissue; host or cells: striatal tissue (membrane preparation)
Assay: MOR agonist activity using [35S]GTPγS binding assay in striatal membranes
Assay type: biochemical
Settings: for MOR agonist activity, [35S]GTPγS binding, FLNA-binding compound as agonist at 0.1 μM / MOR agonist activity, [35S]GTPγS binding, 1 μM + BFNA / MOR agonist activity, [35S]GTPγS binding, FLNA-binding compound as agonist at 1 μM: striatal membranes; for MOR agonist activity, [35S]GTPγS binding, FLNA-binding compound as agonist at 0.1 μM / MOR agonist activity, [35S]GTPγS binding, FLNA-binding compound as agonist at 1 μM: Series C-2; for MOR agonist activity, [35S]GTPγS binding, 1 μM + BFNA: 1 μM compound + 1 μM β-FNA (MOR antagonist); for MOR agonist activity ([35S]GTPγS binding to Gαo), preliminary study: average of two runs
Experimental: To assess the mu opiate receptor (MOR) agonist activity of positive compounds from the FLNA screening, compounds were tested in a [^35S]GTPγS binding assay using striatal membranes. […] This assay measures a functional consequence of receptor occupancy at one of the earliest receptor-mediated events. The assay permits for traditional pharmacological parameters of potency, efficacy and antagonist affinity, with the advantage that agonist measures are not subjected to amplification or other modulation that may occur when analyzing parameters further downstream of the receptor.
Thus, striatal tissue was homogenized in 10 volumes of ice cold 25 mM HEPES buffer, pH 7.4, which contained 1 mM EGTA, 100 mM sucrose, 50 μg/ml leupeptin, 0.04 mM PMSF, 2 μg/ml soybean trypsin inhibitor and 0.2% 2-mercaptoethanol. The homogenates were centrifuged at 800×g for 5 minutes and the supernatants were centrifuged at 49,000×g for 20 minutes.
The resultant striatal membrane preparation (200 μg) was admixed and maintained (incubated) at 30° C. for 5 minutes in reaction buffer as above that additionally contained 1 mM MgCl2 and 0.5 nM [^35S]GTPγS (0.1 μCi/assay, PerkinElmer Life and Analytical Sciences) in a total volume of 250 μl and continued for 5 minutes in the absence or presence of 0.1-10 μM of an assayed compound of interest. The reaction was terminated by dilution with 750 μl of ice-cold reaction buffer that contained 20 mM MgCl2 and 1 mM EGTA and immediate centrifugation at 16,000×g for 5 minutes.
Normal rabbit serum (1 μl) was added to 1 ml of lysate and incubated at 25° C. for 30 minutes. Nonspecific immune complexes were removed by incubation with 25 μl of protein A/G-conjugated agarose beads at 25° C. for 30 minutes followed by centrifugation at 5,000×g at 4° C. for 5 minutes. The supernatant was divided and separately incubated at 25° C. for 30 minutes with antibodies raised against Gαo proteins (1:1,000 dilutions).
The immunocomplexes so formed were collected by incubation at 25° C. for 30 minutes with 40 μl of agarose-conjugated protein A/G beads and centrifugation at 5,000×g at 4° C. for 5 minutes. The pellet was washed and suspended in buffer containing 50 mM Tris-HCl, pH 8.0, and 1% NP-40. The radioactivity in the suspension was determined by liquid scintillation spectrometry.

[1] = Series C-1, 1 μM compound + BFNA relative to DAMGO + BFNA
[2] = 1 μM compound, relative to DAMGO
[3] = Series C-1, 0.1 μM compound relative to DAMGO (0.1 μM)

T1 sequence (P33535 whole entry): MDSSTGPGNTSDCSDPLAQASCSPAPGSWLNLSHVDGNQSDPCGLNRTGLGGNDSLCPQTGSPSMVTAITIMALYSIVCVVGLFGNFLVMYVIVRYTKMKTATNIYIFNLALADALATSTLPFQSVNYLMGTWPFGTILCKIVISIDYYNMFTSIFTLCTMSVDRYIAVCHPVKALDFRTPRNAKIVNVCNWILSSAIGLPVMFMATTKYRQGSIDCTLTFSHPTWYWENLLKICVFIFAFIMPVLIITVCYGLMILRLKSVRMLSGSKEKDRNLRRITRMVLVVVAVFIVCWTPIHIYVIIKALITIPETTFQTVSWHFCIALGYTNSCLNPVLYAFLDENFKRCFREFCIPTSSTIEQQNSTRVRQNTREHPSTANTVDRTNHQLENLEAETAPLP

Row | SMILES | MOR agonist activity, [35S]GTPγS binding, FLNA-binding compound as agonist at 0.1 μM (0.1 μM compound) [%] | MOR agonist activity, [35S]GTPγS binding, 1 μM + BFNA [%] | MOR agonist activity, [35S]GTPγS binding, FLNA-binding compound as agonist at 1 μM (1 μM compound) [%] | other results
1 | O=C1CN(Cc2ccccc2)C2(CCN(CC3CC3)CC2)N1 [Compound C0125M] | 168.6 | 159.7 | 195.2 | 
2 | N#Cc1ccc(S(=O)(=O)N2CCC3(CC2)OCCN3S(=O)(=O)c2ccc(C#N)cc2)cc1 [Compound C0008] |  |  |  | % DAMGO + BFNA [1]: 4.4%
3 | CC(=O)c1ccc(S(=O)(=O)N2CC(CN(C)C)OC23CCN(CC2CC2)CC3)cc1 (centres unmarked) [Compound C0128M] | 197.8 | 63.9 | 286.0 | 
4 | CC(=O)c1ccc(S(=O)(=O)N2CC(CN(C)C)OC23CCN(C)CC3)cc1 (centres unmarked) [Compound C0108M] | 205.6 | 76.9 | 258.5 | 
5 | COc1ccc(S(=O)(=O)N2CCC3(NCCO3)C3CCCCC32)cc1 (centres unmarked) [Compound C0144M-2] | 186.3 | 125.9 | 295.9 | 
6 | CC(=O)c1ccc(S(=O)(=O)N2C(Cc3c[nH]cn3)C(=O)NC23CCNCC3)cc1 (centres unmarked) [Compound C0119M] | 105.7 | 35.1 | 167.8 | % DAMGO (1 μM) [2]: 83.0%
7 | CC(=O)c1ccc(S(=O)(=O)N2CCC3(CC2)NC(=O)CO3)cc1 [Compound C0087M] | 262.8 | 142.5 | 329.6 | % DAMGO (0.1 μM) (0.1 μM compound, relative to DAMGO): 138.9%; % DAMGO + BFNA (1 μM compound + BFNA, relative to DAMGO + BFNA): 293.8%; % DAMGO (1 μM) [2]: 132.8%
8 | CCCCc1ccc(S(=O)(=O)N2CCC3(CC2)OCCN3S(=O)(=O)c2ccc(CCCC)cc2)cc1 [Compound C0030] |  |  |  | % DAMGO (0.1 μM) [3]: 96.0%; % DAMGO (1 μM) (Series C-1, 1 μM compound relative to DAMGO (1 μM)): 98.0%
9 | COc1c2c(cc3c1C(CC(=O)c1ccc(F)c(F)c1)[N+](C)(C)CC3)OCO2 (centres unmarked) [Compound B0003] |  |  |  | % DAMGO + BFNA (Series B, 1 μM compound + BFNA relative to DAMGO + BFNA): 29.0%
10 | O=C1CN(C2CCc3ccccc3C2)C2(CCN(S(=O)(=O)c3ccccc3)CC2)N1 (centres unmarked) [C0136M (P5)] | 176.8 | 74.5 | 237.3 | 
11 | O=S(=O)(c1ccc(OC(F)(F)F)cc1)N1CCC2(CC1)OCCN2S(=O)(=O)c1ccc(OC(F)(F)F)cc1 [Compound C0006] |  |  |  | % DAMGO + BFNA [1]: 7.2%
12 | CC(=O)Nc1ccc(S(=O)(=O)N2CCC3(CC2)OCCN3S(=O)(=O)c2ccc(NC(C)=O)cc2)cc1 [Compound C0013] |  |  |  | % DAMGO (0.1 μM) [3]: 91.0%
13 | COc1ccc(S(=O)(=O)N2CCOC23CCNCC3)cc1 [Compound C0027] | 233.2 | 72.2 | 313.9 | 
14 | COc1ccc(S(=O)(=O)N2CCOC23CCN(C(C)C)CC3)cc1 [Compound C0133M] | 139.4 | 72.4 | 214.8 | 
15 | O=[N+]([O-])c1ccc(S(=O)(=O)N2CCC3(CC2)NCCCO3)cc1 [Compound C0045] | 149.2 | 105.3 | 238.8 | 
16 | COc1ccc(S(=O)(=O)N2CCSC23CCNCC3)cc1 [S-C0027] | 156.2 | 56.2 | 286.8 | 

Row | SMILES | MOR agonist activity, [35S]GTPγS binding, FLNA-binding compound as agonist at 0.1 μM (0.1 μM compound) [%] | MOR agonist activity, [35S]GTPγS binding, 1 μM + BFNA [%] | MOR agonist activity, [35S]GTPγS binding, FLNA-binding compound as agonist at 1 μM (1 μM compound) [%] | other results
17 | CC(=O)N1CCSC12CCN(S(=O)(=O)c1ccc([N+](=O)[O-])cc1)CC2 [Compound C0050] | 110.3 | 59.0 | 127.6 | 
18 | COc1ccc(S(=O)(=O)N2CCOC23CCN(C(=O)OC(C)(C)C)CC3)cc1 [Compound C0043] | 175.4 | 83.3 | 242.6 | 
19 | CS(=O)(=O)c1ccc(S(=O)(=O)N2CCOC23CCN(CC2CC2)CC3)cc1 [Compound C0126M] | 181.8 | 108.5 | 265.3 | 
20 | COc1ccc(S(=O)(=O)N2CCOC23CCN(CC2CC2)CC3)cc1 [Compound C0090M] | 237.0 | 41.0 | 341.0 | 
21 | CS(=O)(=O)c1ccc(S(=O)(=O)N2CCOC23CCNCC3)cc1 [Compound C0116M] | 258.4 | 152.0 | 302.8 | 
22 | C[C@@H](NC(=O)[C@@H](N)Cc1ccc(O)cc1)C(=O)NCC(=O)N(C)[C@@H](Cc1ccccc1)C(=O)NCCO [DAMGO, [D-Ala2, N-MePhe4, Gly-ol]-enkephalin, reference compound] | 168.5 | 53.2 | 266.1 | MOR agonist activity ([35S]GTPγS binding to Gαo), preliminary study (0.1 μM compound as agonist): 144.7%; MOR agonist activity ([35S]GTPγS binding to Gαo), preliminary study (1 μM + βNFA): 56.8%; MOR agonist activity ([35S]GTPγS binding to Gαo), preliminary study (1 μM compound as agonist): 233.4%
23 | CN1CCC2(CC1)NC(=O)CN2Cc1ccccc1 [Compound C0104M] | 188.2 | 143.8 | 238.9 | 
24 | CC(=O)c1ccc(S(=O)(=O)N2CCC3(CC2)OCCN3S(=O)(=O)c2ccc(C(C)=O)cc2)cc1 [Compound C0011] | 217.0 | 19.0 | 305.0 | 
25 | COc1ccc(S(=O)(=O)N2CCOC23CCN(C)CC3)cc1 [Compound C0088M] | 276.3 | 177.1 | 355.3 | 
26 | O=C1CN(Cc2ccccc2)C2(CCN(C3CCCCC3)CC2)N1 [C0137M(P7)] | 180.8 | 55.8 | 193.8 | 
27 | O=S(=O)(c1ccccc1Oc1ccccc1)N1CCC2(CC1)NCCO2 [Compound C0149M-2] | 209.8 | 93.4 | 406.7 | 
28 | CCCCN1CCC2(CC1)OCCN2S(=O)(=O)c1ccc(OC)cc1 [Compound C0102M] | 131.8 | 150.4 | 272.0 | 
29 | CC(=O)c1ccc(S(=O)(=O)N2CCOC23CCNCC3)cc1 [Compound C0046] | 286.2 | 156.8 | 492.9 | 
30 | O=S(=O)(c1cccc2cccnc12)N1CCC2(CC1)OCCN2S(=O)(=O)c1cccc2cccnc12 [Compound C0143M] | 81.0 | 86.5 | 193.3 | 
31 | CC(=O)c1ccc(C(=O)N2CCC3(CC2)OCCN3C(=O)c2ccc(C(C)=O)cc2)cc1 [Compound C0054] |  |  |  | % DAMGO (0.1 μM) [3]: 47.0%
